From EP4656642A1, “ESTROGEN RECEPTOR PROTEOLYSIS TARGETING CHIMERA COMPOUND AND USE THEREOF” (GAN & LEE PHARM CO., LTD, priority 2023, dated 2024)

What was measured:
Format in all cases: cell-based
MCF-7 cells = assay: Inhibition of cell proliferation of MCF-7 cells (CCK-8, 9 days); settings: treated for 9 days, CCK-8 kit (Table 6)
Source text: Test Example 4 Inhibitory effect of the PROTAC compounds disclosed in the present disclosure on cell proliferation of MCF-7 cells
The complete medium required for MCF-7 cells (source ATCC) was DMEM (gibco, Product number :11995-065) basal medium containing 10% fetal bovine serum. MCF-7 cells were inoculated in 96-well plates at a density of 800 cells/well, and different concentrations of the PROTAC compounds 1-55 provided in the embodiments of the present disclosure and a positive control sample ARV-471 (source: Innochem) were prepared to treat cells, and cells were treated at 37°C in a cell culture incubator with 5% CO2 for 9 days. Cell viability was detected using a CCK -8 kit (Beyotime , Product number: C0040) according to the manufacturer's instruction. […] Table 5 IC50 values for inhibition of the proliferation of MCF-7 cells by the PROTAC compounds of the present disclosure and positive control sample

ERα [1] = target: T1, ERα (Homo sapiens, UniProt P03372); assay: Degradation of ERα in MCF-7 cells (immunoblotting, 4 h)
T1 sequence (P03372 1-595): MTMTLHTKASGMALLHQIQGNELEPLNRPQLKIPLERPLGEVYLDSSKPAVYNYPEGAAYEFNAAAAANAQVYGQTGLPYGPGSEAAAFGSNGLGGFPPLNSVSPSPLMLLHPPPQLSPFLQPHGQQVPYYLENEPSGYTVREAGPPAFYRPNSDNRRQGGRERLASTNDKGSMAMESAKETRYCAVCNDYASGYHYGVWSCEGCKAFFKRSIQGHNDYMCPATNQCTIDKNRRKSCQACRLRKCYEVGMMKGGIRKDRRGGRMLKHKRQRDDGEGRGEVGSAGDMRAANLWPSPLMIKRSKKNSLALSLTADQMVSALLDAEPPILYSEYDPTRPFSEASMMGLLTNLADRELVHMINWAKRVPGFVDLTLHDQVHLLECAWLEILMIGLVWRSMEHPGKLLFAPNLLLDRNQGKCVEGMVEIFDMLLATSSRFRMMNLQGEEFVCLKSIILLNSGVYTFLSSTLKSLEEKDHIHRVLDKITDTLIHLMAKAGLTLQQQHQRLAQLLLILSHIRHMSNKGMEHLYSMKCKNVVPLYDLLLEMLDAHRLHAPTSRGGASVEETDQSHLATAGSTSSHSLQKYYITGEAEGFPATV
Procedure: MCF-7 cells were inoculated into 6-well plates at a density of 3×10^5 cells/well and cultured at 37°C, 5% CO2 for 24h. After the cells were attached to the wall, 1µL of the compound solution in dimethyl sulfoxide (final concentration 0.15-1000nM) was added and continued to be cultured in incubator at 37°C with 5% CO2 for 4 h. After 4 h, the culture medium was discarded, and each well was washed once with pre-cooled 1×DPBS, and the cells were lysed with a mixture of 50 µL of RIPA lysis buffer (P0013B, Beyotime) and 1× protease inhibitor (P1005, Beyotime), and then centrifuged at 14,000 g for 30 min at 4°C after resting on ice for 20 min, and the supernatant was carefully collected to detect the protein level of ERα by protein immunoblotting (Immunoblotting).
Protein immunoblotting: The total protein concentration in the collected cell lysate supernatant was determined by BCA Protein Concentration Assay Kit (Enhanced) (P0009, Beyotime). According to the total protein concentration detected by BCA, the protein was adjusted to 1 µg/µL with RIPA lysis buffer and 5× SDS-PAGE protein loading buffer (MB01015, Genscript), and the protein was denatured by water bath at 95°C for 5 min, and then centrifuged after denaturation to enrich the condensate on the wall of the centrifuge tubes as a loading sample. […] At the end of electrophoresis, the proteins in the SDS-PAGE gels were transferred to a PVDF membrane at a constant voltage of 100 V for 60 min. After that, the PVDF membrane corresponding to ERα protein and internal reference protein was cut out and incubated in 1×QµickBlock blocking solution (P0252, Beyotime) for 30 min at room temperature on a shaker. […] Protein profiles were analyzed by Image Studio Lite analysis software for grayscale values. Grayscale correction values were calculated for each sample using the Formula: corrected grayscale value = grayscale value of the target protein /corresponding grayscale value of the internal reference. The degradation rate for the compounds was then calculated by comparing the corrected grayscale values of the compound group to the control group. Table 7 Degradation rate (%) of ERα by the PROTAC compounds of the present disclosure and positive control sample in MCF-7 cells

ERα [2] = target: T1, ERα; assay: Degradation of ERα in T-47D cells (immunoblotting, 4 h); parameters: host or cells: T-47D
Procedure: T-47D cells were inoculated into 6-well plates at a density of 3×10^5 cells/well and cultured at 37°C, 5% CO2 for 24 h. After the cells were attached to the wall, 1µL of the compound solution in dimethyl sulfoxide (final concentration 0.15-1000 nM) was added and continued to be cultured in the incubator with 5% CO2 at 37°C for 4 h. After 4 h, the culture medium was discarded, and each well was washed once with pre-cooled 1×DPBS, and the cells were lysed with a mixture of 50 µL of RIPA lysis buffer (P0013B, Beyotime) and 1× protease inhibitor (P1005, Beyotime), and then centrifuged at 14,000 g for 30 min at 4°C after resting on ice for 20 min, and the supernatant was carefully collected to detect the protein level of ERα by protein immunoblotting (Immunoblotting).

IC50 (MCF-7 cells) [nM]	Degradation rate (%) of ERα in MCF-7 cells (ERα [1]; 1nM compound) [%]	Degradation rate (%) of ERα in MCF-7 cells (ERα [1]; 10nM compound) [%]	Degradation rate (%) of ERα in T-47D cells (ERα [2]; 1nM compound) [%]	Degradation rate (%) of ERα in T-47D cells (ERα [2]; 10nM compound) [%]	SMILES
511	-2	-3	7	27	O=C1CCC(N2C(=O)c3cc4c(cc3C2=O)OC2(CCN(C3CC5(CCN(c6ccc([C@@H]7c8ccc(O)cc8CC[C@@H]7c7ccccc7)cc6)CC5)C3)CC2)C4)C(=O)N1 (stereo partly shown) [K1]
83.3	19	72	52	84	O=C1CCC(N2Cc3c(ccc4c3OCC43CCN(C4CCC(OC5CCN(c6ccc([C@@H]7c8ccc(O)cc8CC[C@@H]7c7ccccc7)cc6)CC5)CC4)CC3)C2=O)C(=O)N1 (stereo partly shown) [K50]
544	-6	5	13	8	O=C1CCC(N2Cc3c(ccc4c3OCC43CCN(C4CC5(C4)CN(c4ccc([C@@H]6c7ccc(O)cc7CC[C@@H]6c6ccccc6)cc4)C5)CC3)C2=O)C(=O)N1 (stereo partly shown) [L18]
59	30	56	15	69	O=C1CCC(N2Cc3cc4c(cc3C2=O)OC2(CC4)CN(CC3CCN(C(=O)C4CCN(c5ccc([C@@H]6c7ccc(O)cc7CC[C@@H]6c6ccccc6)cc5)CC4)CC3)C2)C(=O)N1 (stereo partly shown) [K39]
86	9	14	12	9	O=C1CCC(N2C(=O)c3ccc4c(c3C2=O)OCC42CCN(C3CC4(C3)CN(c3ccc([C@@H]5c6ccc(O)cc6CC[C@@H]5c5ccccc5)cc3)C4)CC2)C(=O)N1 (stereo partly shown) [L19]
15.2	20	61	54	76	O=C1CCC(N2Cc3c(ccc4c3OCC43CCN(C(=O)C4CCN(C(=O)C5CCN(c6ccc([C@@H]7c8ccc(O)cc8CC[C@@H]7c7ccccc7)cc6)CC5)CC4)CC3)C2=O)C(=O)N1 (stereo partly shown) [K36]
2510	20	23	48	56	CN(C(=O)CN1CCC2(CC1)COc1c2ccc2c1CN(C1CCC(=O)NC1=O)C2=O)C1CCN(c2ccc([C@@H]3c4ccc(O)cc4CC[C@@H]3c3ccccc3)cc2)CC1 (stereo partly shown) [K37]

Second part, the molecule before the results:

SMILES	IC50 (MCF-7 cells) [nM]	Degradation rate (%) of ERα in MCF-7 cells (ERα [1]; 1nM compound) [%]	Degradation rate (%) of ERα in MCF-7 cells (ERα [1]; 10nM compound) [%]	Degradation rate (%) of ERα in T-47D cells (ERα [2]; 1nM compound) [%]	Degradation rate (%) of ERα in T-47D cells (ERα [2]; 10nM compound) [%]
O=C1CCC(N2Cc3c(ccc4c3OCC43CCN(C(=O)CN4CCN(c5ccc([C@@H]6c7ccc(O)cc7CC[C@@H]6c6ccccc6)cc5)CC4)CC3)C2=O)C(=O)N1 (stereo partly shown) [H14]	> 100000	8	-13	31	27
O=C1CCC(N2Cc3c(ccc4c3OCC43CCN(CC(=O)N4CCC(C#Cc5ccc([C@@H]6c7ccc(O)cc7CC[C@@H]6c6ccccc6)cc5)CC4)CC3)C2=O)C(=O)N1 (stereo partly shown) [A79]	2.59	45	47	40	60
O=C1CCC(N2Cc3c(ccc4c3OCC43CCN(C(=O)C4CN(CC5CCN(c6ccc([C@@H]7c8ccc(O)cc8CC[C@@H]7c7ccccc7)cc6)CC5)C4)CC3)C2=O)C(=O)N1 (stereo partly shown) [J9]	5.64	63	69	78	83
O=C1CCC(N2Cc3c(ccc4c3OCC43CCN(CCN4CCC5(CC4)CCN(c4ccc([C@@H]6c7ccc(O)cc7CC[C@@H]6c6ccccc6)cc4)CC5)CC3)C2=O)C(=O)N1 (stereo partly shown) [A71]	14.5	32	73	52	86
O=C1CCC(N2Cc3c(ccc4c3OCC43CCN(C4CC5CC4CN5C4CC5(CCN(c6ccc([C@@H]7c8ccc(O)cc8CC[C@@H]7c7ccccc7)cc6)CC5)C4)CC3)C2=O)C(=O)N1 (stereo partly shown) [D3]	6.58	38	60	34	73
O=C1CCC(N2Cc3cc4c(cc3C2=O)OC2(CC4)CN(C(=O)CN3CCC4(CCN(c5ccc([C@@H]6c7ccc(O)cc7CC[C@@H]6c6ccccc6)cc5)CC4)C3)C2)C(=O)N1 (stereo partly shown) [A77]	52100	29	61	54	78
O=C1CCC(N2Cc3c(ccc4c3OCC43CCN([C@@H]4CCN(CC5CCN(c6ccc([C@@H]7c8ccc(O)cc8CC[C@@H]7c7ccccc7)cc6)CC5)C[C@@H]4F)CC3)C2=O)C(=O)N1 (stereo partly shown) [J6]	9.31	52	68	39	81
O=C1CCC(N2Cc3c(ccc4c3OCC43CCN(C4CC5(CCC6(CC5)CN(c5ccc([C@@H]7c8ccc(O)cc8CC[C@@H]7c7ccccc7)cc5)C6)C4)CC3)C2=O)C(=O)N1 (stereo partly shown) [A81]	22.3	-39	20	-33	45
O=C1CCC(N2C(=O)c3ccc4c(c3C2=O)OCC42CCN(CC3CCN(c4ccc([C@@H]5c6ccc(O)cc6CC[C@@H]5c5ccccc5)cc4)CC3)CC2)C(=O)N1 (stereo partly shown) [H4]	7740	-32	-7	-41	-48
O=C1CCC(N2Cc3cc4c(cc3C2=O)OC2(CC4)CN(C3CC4(CCC5(CCN(c6ccc([C@@H]7c8ccc(O)cc8CC[C@@H]7c7ccccc7)cc6)CC5)CC4)C3)C2)C(=O)N1 (stereo partly shown) [H24]	1180	-7	11	16	21
